Assay results from patent US8987486B2, “Trans-2-decenoic acid derivative and pharmaceutical agent containing the same” (Nagoya Industrial Science Research Institute, priority 2010, dated 2015).

Columns and labels:
MAP kinase = assay: Activation (phosphorylation) of MAP kinase by Western immunoblotting in cultured cerebral cortex nerve cells; assay type: cell-based, rat; parameters: pMAPK/MAPK: unit not given here; settings: for Ratio of pMAPK to MAPK: Test Example 6, relative to control (0 μg/mL = 1.0)
Description: With regard to the compound 1 ((E)-2-(dimethylamino)-ethyl dec-2-enoate), activation of MAP kinase was measured as follows by a Western immunoblotting.
Nerve cells were dispersed from cerebral cortex of a fetal rat of 17 days age and said nerve cells were cultured for one day in a Dulbecco-modified Eagle medium (DMEM) containing 5% fetal bovine serum. The culture medium was exchanged with a serum-free medium (B27 supplement-added Neurobasal; Invitrogen) and the nerve cells were cultured at the density of 20,000 to 40,000 cells per cm^2 in a culture dish coated with polyornithine.
After three days, the compound 1 was added and the culture was continued for 30 minutes. After that, the cells were recovered on ice using a solution containing a phosphatase inhibitor where Tris-HCl buffer was a base. Protein concentration of the resulting cell extract was quantified using a BCA Protein Assay Kit (Takara Bio KK) and a certine amount of protein (3 μg for the measurement of MAP kinase and 5 μg for the measurement of phosphorylated MAP kinase) was subjected to polyacrylamide gel electrophoresis. The protein was transcribed from the gel after the electrophoresis to a PVDF membrane and a Western immunoblotting was carried out using each of an anti-MAP kinase antibody (Cell Signaling Technology) and an anti-phosphorylated MAP kinase antibody (Cell Signaling Technology) of the primary antibody.
After that, the reaction with an alkaline phosphatase-labeled anti-rabbit IgG antibody (Promega) of the secondary antibody was carried out so that the enzymatic activity was colorized whereupon the MAP kinase and the phosphorylated MAP kinase were measured.
Incidentally, the compound 1 was adjusted to the concentrations of 10 μg/ml, 30 μg/ml, 100 μg/ml and 300 μg/ml by dissolving in 0.1% DMSO. With regard to the control, 0.1% DMSO was added.
Intensity of the concentration of the above-obtained band of the gel subjected to electrophoresis was calculated and quantified using Image J (K. K. Bioarts). The numerical value for the MAP kinase using the compound 1 was divided by the numerical value for the MAP kinase of the control and, further, the numerical value for the phosphorylated MAP kinase using the compound 1 was divided by the numerical value for the phosphorylated MAP kinase of the control whereupon the ratio of the MAP kinase using the compound 1 to the control and the ratio of the phosphorylated kinase using the compound 1 to the control were determined.
After that, the resulting ratio of the phosphorylated MAP kinase to the control was divided by the resulting ratio of the MAP kinase to the control to determine the ratio of the phosphorylated MAP kinase to the MAP kinase (cf. Table 5). In Table 5, “MAPK” means a MAP kinase and “pMAPK” means a phosphorylated MAP kinase. “10”, “30”, “100” and “300” in Table 5 show the examples where 10 μg/ml, 30 μg/ml, 100 μg/ml and 300 μg/ml of the compound 1 were added.
MAP kinase and phosphorylated MAP kinase were measured for the compound 6 ((E)-2-(diethylamino)ethyl dec-2-enoate) and the compound 13 ((E)-2-(2-(diethylamino)ethoxy)ethyl dec-2-enoate) by the same method as in Test Example 1.
Each of the compounds 6 and 13 was dissolved in 0.1% DMSO to adjust to the concentration of 250 μg/ml. With regard to the control, 0.1% DMSO was added. With regard to the concentration of the resulting band of the gel subjected to electrophoresis, its intensity was calculated by the same method as in Test Example 1 using Image J (K. K. Bioarts) and the ratio of the phosphorylated MAP kinase to the control was divided by the resulting ratio of the MAP kinase to the control whereupon the ratio of the phosphorylated MAP kinase to the MAP kinase was determined (cf. Table 6).
With regard to the compound of the present invention, its activation for MAP kinase was measured by the same manner as in Test Example 1.
Each compound was dissolved in 0.1% DMSO to adjust to the concentrations of 30 μg/ml, 60 μg/ml, 125 μg/ml and 250 μg/ml. […]

PC12 cells = assay: Evaluation using PC12 cells; immunostaining method for MAPK phosphorylation; assay type: cell-based; settings: 30 minutes
Description: PC12 cells were stimulated using the compound of the present invention and the phosphorylation of MAPK was evaluated by means of immunostaining of the cells. The specific operation procedure is as follows.
A cover glass was placed on a 24-well plate followed by coating with poly-L-lysine. PC12 cells were seeded in a cell density of 50,000 cells/well. (The amount of the medium was 400 μL) On the first day after seeding the cells, the medium was exchanged to DMEM containing 1% fetal bovine serum (FBS) and 0.06% L-glutamine.
The compound which was previously diluted with DMSO was dissolved in 100 μl of medium. After 12 to 16 hours from the medium exchange, 100 μl out of 400 μl of the medium was removed from each well and, in place of that, 100 μl of a medium containing the compound was added.
After 30 minutes from the addition, fixation was conducted using 4% paraformaldehyde (PFA) for 10 minutes. The fixed cells were washed with a Tris-buffered saline (TBS) and a TBS containing 0.3% Triton X was added thereto followed by incubating at 37° C. for 30 minutes. This was washed with a TBS and blocked with a TBS containing 3% skim milk for 30 minutes (at room temperature).
This was washed with a TBS for one time and a primary antibody (anti-phospho-p42/44 MAPK antibody; cell signalings; #9102 being diluted with TBS to an extent of 1,000-fold) was added thereto followed by subjecting to the reaction at 4° C. for one night. The primary antibody was removed and washed with a TBS for three times. After that, the secondary antibody (Alexa 488 goat anti-rabbit antibody; Invitrogen: being diluted to an extent of 1,000-fold using a TBS containing 1% Block Ace) was added thereto and the reaction was conducted at room temperature for 3 hours. The secondary antibody was removed and, after washing with a TBS, fixation was conducted with 4% PFA for 1 hour.
This was washed with a TBS, Hoechst (diluted with a TBS to an extent of 2000-fold) was added thereto and nuclear staining was conducted. This was washed and mounted.
Taking the photographic pictures and counting the positive cells were conducted as follows. An all-in-one microscope (manufactured by Keyence) was used, exposing time for pMAPK (green) was made 1/2.8 s, the place was appropriately decided in a Hoechst-stained image and the pictures were taken. Four pictures per one glass sheet were taken.
Photoshop (Adobe) was used and the cells having above a certain luminance were judged to be positive. All cells were labeled using Hoechst 33342 manufactured by Invitrogen and the rate of pMAPK-positive cells in Hoechst-positive cells was calculated. (cf. Table 7)

[1] = 10 μg/ml, 30 minutes, fetal rat cerebral cortex nerve cells
[2] = 30 μg/ml, 30 minutes, fetal rat cerebral cortex nerve cells
[3] = 100 μg/ml, 30 minutes, fetal rat cerebral cortex nerve cells

Compound: CCCCCCC/C=C/C(=O)OCCN(C)C [Compound 1, (E)-2-(dimethylamino)ethyl dec-2-enoate]
- pMAPK/MAPK (MAP kinase; [1]): 674
- pMAPK/MAPK/Control (MAP kinase; [1]): 1.38
- pMAPK/MAPK (MAP kinase; [2]): 1071
- pMAPK/MAPK/Control (MAP kinase; [2]): 2.20
- pMAPK/MAPK (MAP kinase; [3]): 1043
- pMAPK/MAPK/Control (MAP kinase; [3]): 2.14
- pMAPK/MAPK (MAP kinase; 300 μg/ml, 30 minutes, fetal rat cerebral cortex nerve cells): 2234
- Rate of pMAPK-positive cells (%) (PC12 cells; 62.5 μg/mL): 4%
- Rate of pMAPK-positive cells (%) (PC12 cells; 125 μg/mL): 12%
- Rate of pMAPK-positive cells (%) (PC12 cells; 250 μg/mL): 36%
- Rate of pMAPK-positive cells (%) (PC12 cells; 500 μg/mL): 32%

Compound: CCCCCCC/C=C/C(=O)OCCN(CC)CC [Compound 6, (E)-2-(diethylamino)ethyl dec-2-enoate]
- pMAPK/MAPK/Control (MAP kinase; 250 μg/ml, Test Example 2, control = 1.00): 1.72
- Rate of pMAPK-positive cells (%) (PC12 cells; 62.5 μg/mL): 31%
- Rate of pMAPK-positive cells (%) (PC12 cells; 125 μg/mL): 51%

Compound: CCCCCCC/C=C/C(=O)NCCN(C)C [Compound 36, (E)-N-2-(dimethylamino)ethyl dec-2-enamide]
- Ratio of pMAPK to MAPK (MAP kinase; 30 μg/mL): 1.6
- Ratio of pMAPK to MAPK (MAP kinase; 60 μg/mL): 5.1
- Ratio of pMAPK to MAPK (MAP kinase; 125 μg/mL): 0.5
- Rate of pMAPK-positive cells (%) (PC12 cells; 62.5 μg/mL): 12%
- Rate of pMAPK-positive cells (%) (PC12 cells; 125 μg/mL): 70%
- Rate of pMAPK-positive cells (%) (PC12 cells; 250 μg/mL): 89%
- Rate of pMAPK-positive cells (%) (PC12 cells; 500 μg/mL): 43%

Compound: CCCCCCC/C=C/C(=O)NCCN(CC)CC [Compound 37, (E)-N-2-(diethylamino)ethyl dec-2-enamide]
- Ratio of pMAPK to MAPK (MAP kinase; 60 μg/mL): 3.4
- Ratio of pMAPK to MAPK (MAP kinase; 125 μg/mL): 3.4
- Ratio of pMAPK to MAPK (MAP kinase; 250 μg/mL): 4.9
- Rate of pMAPK-positive cells (%) (PC12 cells; 62.5 μg/mL): 6%
- Rate of pMAPK-positive cells (%) (PC12 cells; 125 μg/mL): 43%
- Rate of pMAPK-positive cells (%) (PC12 cells; 250 μg/mL): 48%
- Rate of pMAPK-positive cells (%) (PC12 cells; 500 μg/mL): 0%

Compound: CCCCCCC/C=C/C(=O)SCCN(C)C [Compound 55, (E)-S-2-(dimethylamino)ethyl dec-2-enethioate]
- Ratio of pMAPK to MAPK (MAP kinase; 30 μg/mL): 4.6
- Ratio of pMAPK to MAPK (MAP kinase; 60 μg/mL): 8.6
- Ratio of pMAPK to MAPK (MAP kinase; 125 μg/mL): 16.0
- Rate of pMAPK-positive cells (%) (PC12 cells; 62.5 μg/mL): 20%
- Rate of pMAPK-positive cells (%) (PC12 cells; 125 μg/mL): 46%
- Rate of pMAPK-positive cells (%) (PC12 cells; 250 μg/mL): 41%
- Rate of pMAPK-positive cells (%) (PC12 cells; 500 μg/mL): 10%
